“And” between values parts separate entries of the source, which are not always exact repeats. Equal entries are not always repeated. Where two headings read alike, the source gives them in different places. Values belong to the compound of their own block, whether it stands above or below them.
Assays:
[1] = biological target: T1, adenosine deaminase (ADA) (Homo sapiens, UniProt P00813); test: Deamination by adenosine deaminase, followed UV-spectrophotometrically; type: biochemical; settings: compared with purine nucleoside 1; even at high enzyme concentrations
T1 sequence (P00813 1-363): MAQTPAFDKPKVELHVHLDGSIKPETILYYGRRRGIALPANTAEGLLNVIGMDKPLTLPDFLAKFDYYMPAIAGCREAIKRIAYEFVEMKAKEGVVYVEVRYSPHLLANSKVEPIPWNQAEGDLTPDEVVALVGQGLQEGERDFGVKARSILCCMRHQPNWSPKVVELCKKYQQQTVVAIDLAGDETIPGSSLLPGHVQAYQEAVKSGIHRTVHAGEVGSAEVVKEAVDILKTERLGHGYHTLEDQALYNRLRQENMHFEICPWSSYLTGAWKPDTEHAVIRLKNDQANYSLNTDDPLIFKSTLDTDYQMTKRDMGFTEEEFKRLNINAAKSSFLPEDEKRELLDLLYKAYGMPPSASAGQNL
Source text: The reaction was followed UV-spectrophoto-metrically (FIG. 1a).
The time-dependent spectra show two isosbestic points (λ=234 nm and 267 nm) indicating the conversion of the starting material into only one reaction product. The deamination of 2a occurs much slower than that of the purine nucleoside 1.

[2] = tested on: complementary oligodeoxyribonucleotide strand (antiparallel duplex); test: Tm values and thermodynamic data of antiparallel DNA-DNA duplexes (UV melting curves, Meltwin 3.0); type: binding
[3] = Half-life of the N-glycosylic bond in HCl, followed UV-spectrophotometrically and by HPLC; type: physicochemical; settings: 25°; for half-life: read-out: Half-life τ
Description: Next, the half-lives of the N-glycosylic bonds of compounds 2a,b in acidic medium were measured and compared with that of compound 1. […]

[4] = Deprotection (alkaline hydrolysis) of base-protected nucleosides in aqueous ammonia, HPLC monitoring; settings: for time of complete deprotection: conc. ammonia, 40°
[5] = buffer
[6] = tested on: complementary oligodeoxyribonucleotide strand (antiparallel duplex); settings: data published so far; n^2Ad instead of dA; cited from earlier work
[7] = 25% aq. NH3, 40°, HPLC-monitoring

time of complete deprotection ([4]; HPLC-monitoring at 260 nm): 440 min
Structure (SMILES): CCCCN(C=Nc1nc(N=CN(CCCC)CCCC)c2cnn([C@H]3C[C@H](O)[C@@H](CO)O3)c2n1)CCCC [8a, N^4,N^6-Bis((di-n-butylamino)methylene)-1-[2-deoxy-β-D-erythro-pentofuranosyl]-1H-pyrazolo[3,4-d]-pyrimidin-4,6-diamine]

time of complete deprotection ([4]; HPLC-monitoring at 260 nm): 450 min
Structure (SMILES): CCCCN(C=Nc1nc(N=CN(CCCC)CCCC)c2c(Br)nn([C@H]3C[C@H](O)[C@@H](CO)O3)c2n1)CCCC [8b, N^4,N^6-Bis((di-n-butylamino)methylene)-3-bromo-1-[2-deoxy-β-D-erythro-pentofuranosyl]-1H-pyrazolo[3,4-d]-pyrimidin-4,6-diamine]

half-life of alkaline hydrolysis [5]: 4.5 min
Structure (SMILES): CC(C)C(=O)Nc1nc(NC(=O)C(C)C)c2c(Br)nn([C@H]3C[C@H](O)[C@@H](CO)O3)c2n1 [13a, 3-Bromo-1-(2-deoxy-β-D-erythro-pentofuranosyl)-4,6-[(2-methylpropanoyl)amino]-1H-pyrazolo[3,4-d]pyrimidine]

time for complete deprotection ([4]; 25% aq. NH3, 40° C., HPLC-monitoring at 260 nm): 450 min
Structure (SMILES): O=C(Nc1nc(NC(=O)c2ccccc2)c2c(I)nn([C@H]3C[C@H](O)[C@@H](CO)O3)c2n1)c1ccccc1 [13b, 1-[2-Deoxy-β-D-erythro-pentofuranosyl]-4,6-dibenzamido-3-iodo-1H-pyrazolo[3,4-d]-pyrimidine]

The next lines start with the compound.

Structure (SMILES): Nc1nc(N)c2c(Br)nn([C@H]3C[C@H](O)[C@@H](CO)O3)c2n1 [2b, 3-Bromo-1-[2-deoxy-β-D-erythro-pentofuranosyl]-1H-pyrazolo[3,4-d]-pyrimidin-4,6-diamine]
deamination by adenosine deaminase [1]: not deaminated
Tm increase (stabilization) per modified residue ([2]; text Example 2, standard duplex 102•103): 4.5 ° and 4-5 °
Tm-value of duplex 102•103 with six residues replacing dA ([2]; text b259): 75 °
Half-life τ ([3]; 0.5 N HCl, Stable = within 4 h): Stable^b)
half-life ([3]; 2 N HCl): 87 min

Structure (SMILES): Nc1nc(N)c2c(I)nn([C@H]3C[C@H](O)[C@@H](CO)O3)c2n1 [2c, 1-(2-Deoxy-β-D-erythro-pentofuranosyl)-3-iodo-1H-pyrazolo[3,4-d]-pyrimidin-4,6-diamine]
Half-life τ ([3]; Table 8, 0.5 N HCl, stable = within 3 h): stable^b)
half-life ([3]; Table 8, 2 N HCl): 61 min

Structure (SMILES): O=C(COc1ccccc1)Nc1nc(NC(=O)COc2ccccc2)c2cnn([C@H]3C[C@H](O)[C@@H](CO)O3)c2n1 [5a, N^4,N^6-Bis(phenoxyacetyl)-1-[2-deoxy-β-D-erythro-pentofuranosyl]-1H-pyrazolo[3,4-d]-pyrimidin-4,6-diamine]
removal of the first pac-group [4, 7]: ≤ 5 min
removal of the second pac-group [4, 7]: 20 min
complete deprotection ([4]; 25% aq. NH3 at r.t.): less than one hour

Structure (SMILES): O=C(Nc1nc(NC(=O)c2ccccc2)c2cnn([C@H]3C[C@H](O)[C@@H](CO)O3)c2n1)c1ccccc1 [5b, N^4,N^6-Bis(benzoyl)-1-[2-deoxy-β-D-erythro-pentofuranosyl]-1H-pyrazolo[3,4-d]-pyrimidin-4,6-diamine]
complete removal of the two benzoyl groups ([4]; 25% aq. NH3, 40°, HPLC monitoring): 8 to 9 h

Structure (SMILES): Nc1nc(N)c2ncn([C@H]3C[C@H](O)[C@@H](CO)O3)c2n1 [compound 1, 2-amino-2′-deoxyadenosine, reference compound]
Tm-increase of DNA duplex [6]: 1-2 °C
half-life ([3]; 0.5 N HCl, Stable = within 4 h): 6 min

Structure (SMILES): CC(C)C(=O)Nc1nc(N)c2c(Br)nn([C@H]3C[C@H](O)[C@@H](CO)O3)c2n1 [compound 14, 4-Amino-3-bromo-1-(2-deoxy-β-D-erythro-pentofuranosyl)-6-[(2-methylpropanoyl)amino]-1H-pyrazolo[3,4-d]pyrimidine]
half-life of alkaline hydrolysis ([4]; 25% aq. NH3 at 40°): 20.5 min

Reference: patent US7238795B2, “Nucleic acid binding compounds containing pyrazolo[3,4-d]pyrimidine analogues of purin-2,6-diamine and their uses” (Roche Molecular Systems, Inc., priority 2000, dated 2007)
